Laboratory results published in article doi:10.1101/2020.05.21.108605v3 (biorxiv, 2020).

Tests used:
Type in all cases: cell-based
hNav1.5 (INa) = hNav1.5 (INa) (Homo sapiens, UniProt Q14524); assay: whole-cell patch clamp; conditions: AZM alone, external pH 7.4
hERG (IKr) [1] = target: T1, hERG (IKr) (Homo sapiens, UniProt Q12809); assay: whole-cell patch clamp
KCNQ1/E1 (IKs) = KCNQ1/E1 (IKs) (Homo sapiens, UniProt P51787); assay: perforated whole-cell patch clamp; conditions: AZM alone, external pH 7.4
Cav1.2/β2/α2/δ1 (ICa,L) = Cav1.2/β2/α2/δ1 (ICa,L) (Homo sapiens, UniProt Q13936); assay: perforated whole-cell patch clamp; conditions: AZM alone, external pH 7.4
hERG (IKr) [2] = target: T1, hERG (IKr); assay: whole-cell patch clamp, tail current inhibition
Kir2.1 (IK1) = target: T2, Kir2.1 (IK1) (Homo sapiens, UniProt P63252); assay: whole-cell patch clamp, pulse current inhibition
T2 sequence (P63252 1-427): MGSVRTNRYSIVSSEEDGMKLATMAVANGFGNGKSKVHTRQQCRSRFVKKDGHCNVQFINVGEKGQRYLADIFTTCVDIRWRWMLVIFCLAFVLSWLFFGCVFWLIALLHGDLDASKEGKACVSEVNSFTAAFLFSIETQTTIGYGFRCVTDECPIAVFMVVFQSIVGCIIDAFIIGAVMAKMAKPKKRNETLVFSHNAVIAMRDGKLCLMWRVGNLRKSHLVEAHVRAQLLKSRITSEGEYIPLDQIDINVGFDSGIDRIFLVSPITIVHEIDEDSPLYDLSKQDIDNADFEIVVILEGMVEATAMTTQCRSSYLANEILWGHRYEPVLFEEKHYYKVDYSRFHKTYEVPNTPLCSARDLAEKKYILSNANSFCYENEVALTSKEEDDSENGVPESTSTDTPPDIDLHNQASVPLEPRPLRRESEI

T1 sequence (Q12809 whole entry): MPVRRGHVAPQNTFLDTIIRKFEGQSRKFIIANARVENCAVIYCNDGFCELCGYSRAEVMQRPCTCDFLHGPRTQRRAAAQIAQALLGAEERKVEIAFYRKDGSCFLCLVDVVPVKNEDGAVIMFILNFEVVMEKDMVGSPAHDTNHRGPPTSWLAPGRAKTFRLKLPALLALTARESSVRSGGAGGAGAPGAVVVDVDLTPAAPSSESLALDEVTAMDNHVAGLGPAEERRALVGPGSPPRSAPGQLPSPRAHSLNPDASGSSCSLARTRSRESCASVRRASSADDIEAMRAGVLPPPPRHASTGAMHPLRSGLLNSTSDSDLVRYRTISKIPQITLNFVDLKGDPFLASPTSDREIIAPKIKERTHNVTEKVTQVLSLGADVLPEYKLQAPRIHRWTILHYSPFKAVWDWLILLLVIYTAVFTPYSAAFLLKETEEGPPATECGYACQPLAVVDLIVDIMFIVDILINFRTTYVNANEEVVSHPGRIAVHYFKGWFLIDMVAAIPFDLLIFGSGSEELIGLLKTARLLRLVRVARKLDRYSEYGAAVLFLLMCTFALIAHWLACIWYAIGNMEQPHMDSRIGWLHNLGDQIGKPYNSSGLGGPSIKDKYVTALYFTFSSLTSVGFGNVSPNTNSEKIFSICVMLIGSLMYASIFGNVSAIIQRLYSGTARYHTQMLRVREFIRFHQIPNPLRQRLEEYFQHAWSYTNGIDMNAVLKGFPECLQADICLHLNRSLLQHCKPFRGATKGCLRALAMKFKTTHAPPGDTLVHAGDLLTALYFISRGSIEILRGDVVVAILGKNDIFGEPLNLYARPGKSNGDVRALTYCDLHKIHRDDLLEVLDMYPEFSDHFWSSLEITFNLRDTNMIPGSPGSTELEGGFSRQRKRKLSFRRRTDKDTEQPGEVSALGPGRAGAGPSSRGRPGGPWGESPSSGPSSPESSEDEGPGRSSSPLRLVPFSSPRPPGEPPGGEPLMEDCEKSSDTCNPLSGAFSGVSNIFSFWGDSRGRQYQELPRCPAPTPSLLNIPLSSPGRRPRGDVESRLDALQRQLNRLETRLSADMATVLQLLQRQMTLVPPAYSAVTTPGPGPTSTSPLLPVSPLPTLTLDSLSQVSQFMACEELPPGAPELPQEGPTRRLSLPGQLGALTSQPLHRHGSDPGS
Chain of hNav1.5 (INa) (Q14524 whole entry): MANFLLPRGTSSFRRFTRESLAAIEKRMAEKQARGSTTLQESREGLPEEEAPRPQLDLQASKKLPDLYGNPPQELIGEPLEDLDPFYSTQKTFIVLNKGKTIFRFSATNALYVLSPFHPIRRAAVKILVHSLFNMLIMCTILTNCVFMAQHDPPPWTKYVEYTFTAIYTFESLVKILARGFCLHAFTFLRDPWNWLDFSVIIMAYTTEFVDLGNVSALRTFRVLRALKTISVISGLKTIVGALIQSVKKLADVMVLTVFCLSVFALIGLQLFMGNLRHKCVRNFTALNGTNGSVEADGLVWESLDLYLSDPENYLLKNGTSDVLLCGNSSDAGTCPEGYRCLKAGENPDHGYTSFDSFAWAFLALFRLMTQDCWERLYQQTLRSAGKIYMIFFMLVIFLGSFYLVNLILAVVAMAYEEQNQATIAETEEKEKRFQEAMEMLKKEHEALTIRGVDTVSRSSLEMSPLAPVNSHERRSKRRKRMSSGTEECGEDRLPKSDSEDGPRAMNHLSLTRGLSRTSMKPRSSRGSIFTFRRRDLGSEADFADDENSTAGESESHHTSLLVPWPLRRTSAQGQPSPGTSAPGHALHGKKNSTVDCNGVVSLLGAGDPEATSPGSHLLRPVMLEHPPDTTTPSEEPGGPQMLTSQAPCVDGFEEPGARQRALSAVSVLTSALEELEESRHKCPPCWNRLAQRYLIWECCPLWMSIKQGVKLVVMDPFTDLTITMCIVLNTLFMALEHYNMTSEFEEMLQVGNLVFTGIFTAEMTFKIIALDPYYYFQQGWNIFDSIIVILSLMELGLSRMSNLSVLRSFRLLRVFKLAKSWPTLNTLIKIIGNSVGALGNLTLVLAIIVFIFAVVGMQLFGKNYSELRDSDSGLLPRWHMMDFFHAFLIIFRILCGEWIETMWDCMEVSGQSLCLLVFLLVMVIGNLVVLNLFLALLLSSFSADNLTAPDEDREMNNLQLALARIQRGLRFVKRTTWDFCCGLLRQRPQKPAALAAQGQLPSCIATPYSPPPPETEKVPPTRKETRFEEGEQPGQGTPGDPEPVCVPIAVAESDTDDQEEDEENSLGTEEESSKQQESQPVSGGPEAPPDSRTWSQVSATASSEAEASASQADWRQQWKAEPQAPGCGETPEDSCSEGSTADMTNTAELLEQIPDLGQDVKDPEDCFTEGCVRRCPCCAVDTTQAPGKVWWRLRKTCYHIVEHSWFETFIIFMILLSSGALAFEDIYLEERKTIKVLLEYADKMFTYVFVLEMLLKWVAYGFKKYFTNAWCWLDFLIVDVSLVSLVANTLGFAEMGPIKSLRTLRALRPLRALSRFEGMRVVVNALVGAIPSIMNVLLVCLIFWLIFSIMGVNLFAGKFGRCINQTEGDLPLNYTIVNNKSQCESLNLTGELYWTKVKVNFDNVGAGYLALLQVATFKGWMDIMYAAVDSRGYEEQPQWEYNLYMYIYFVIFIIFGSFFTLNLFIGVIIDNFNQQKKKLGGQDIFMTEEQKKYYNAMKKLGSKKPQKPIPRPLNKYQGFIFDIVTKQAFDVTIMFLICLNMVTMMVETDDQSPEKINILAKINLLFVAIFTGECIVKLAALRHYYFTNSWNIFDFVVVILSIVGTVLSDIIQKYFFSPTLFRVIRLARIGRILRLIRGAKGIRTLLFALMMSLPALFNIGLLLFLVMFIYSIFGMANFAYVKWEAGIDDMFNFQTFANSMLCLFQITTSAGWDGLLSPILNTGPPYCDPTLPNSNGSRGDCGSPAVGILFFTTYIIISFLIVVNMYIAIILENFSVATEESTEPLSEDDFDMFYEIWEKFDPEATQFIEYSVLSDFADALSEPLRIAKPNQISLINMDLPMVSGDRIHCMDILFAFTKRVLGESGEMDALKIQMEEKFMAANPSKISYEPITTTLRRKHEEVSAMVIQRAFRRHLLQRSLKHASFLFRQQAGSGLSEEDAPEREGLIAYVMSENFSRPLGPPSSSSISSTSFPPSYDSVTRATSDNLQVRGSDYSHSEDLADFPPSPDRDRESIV
Chain of KCNQ1/E1 (IKs) (P51787 whole entry): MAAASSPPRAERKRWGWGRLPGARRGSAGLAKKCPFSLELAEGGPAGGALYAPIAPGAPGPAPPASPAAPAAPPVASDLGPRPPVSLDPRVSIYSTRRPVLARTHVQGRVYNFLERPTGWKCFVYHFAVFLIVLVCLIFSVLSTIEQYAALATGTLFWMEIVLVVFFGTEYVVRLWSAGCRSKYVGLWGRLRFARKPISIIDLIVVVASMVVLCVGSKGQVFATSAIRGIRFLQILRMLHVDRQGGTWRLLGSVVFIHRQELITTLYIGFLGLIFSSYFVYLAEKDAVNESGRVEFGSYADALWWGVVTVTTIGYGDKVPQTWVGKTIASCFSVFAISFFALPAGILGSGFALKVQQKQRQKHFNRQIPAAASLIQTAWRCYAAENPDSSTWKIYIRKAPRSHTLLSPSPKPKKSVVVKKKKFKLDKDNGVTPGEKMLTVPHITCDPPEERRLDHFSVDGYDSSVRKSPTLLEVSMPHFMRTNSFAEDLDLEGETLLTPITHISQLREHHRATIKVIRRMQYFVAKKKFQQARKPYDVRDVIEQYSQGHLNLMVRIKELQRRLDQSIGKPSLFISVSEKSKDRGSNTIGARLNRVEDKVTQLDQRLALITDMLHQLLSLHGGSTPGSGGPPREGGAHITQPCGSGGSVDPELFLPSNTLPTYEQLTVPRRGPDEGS

Row | Structure (SMILES) | % reduction at 100 μM (hNav1.5 (INa)) | % reduction at 100 μM (hERG (IKr) [1]) | % reduction at 100 μM (KCNQ1/E1 (IKs)) | % reduction at 100 μM (Cav1.2/β2/α2/δ1 (ICa,L)) | IC50 (hERG (IKr) [2]) | IC50 (Kir2.1 (IK1))
1 | CC[C@H]1OC(=O)[C@H](C)[C@@H](O[C@H]2C[C@@](C)(OC)[C@@H](O)[C@H](C)O2)[C@H](C)[C@@H](O[C@@H]2O[C@H](C)C[C@H](N(C)C)[C@H]2O)[C@](C)(O)C[C@@H](C)CN(C)[C@H](C)[C@@H](O)[C@]1(C)O [azithromycin] | < 35% | < 35% | < 35% | < 35% | – | –
2 | CCN(CCO)CCCC(C)Nc1ccnc2cc(Cl)ccc12 (stereo not drawn) [hydroxychloroquine] | – | – | – | – | 10 ± 0.6 µM | 34 ± 5 µM
